Holding throughout (type): cell-based
Test [1] has as its system Myostatin. Description: Reporter gene assay for myostatin signaling in HepG2 cell line, Evaluation Procedure (1), myostatin inhibition. To be noted: GDF-11 IC50 versus Myostatin IC50. The method in brief: (§1)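 IC50 derived from One-Glo luciferase luminescence after 20–24 h at 37 °C. Peptides titrated 4-fold at 0.006–100 nmol/L against myostatin or 0.12–2000 nmol/L against GDF-11 in HepG2 cells carrying a transfected CAGA12-luciferase reporter, kept in 0.1% BSA EMEM.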

Test [2] addresses T1, Myostatin (Homo sapiens, UniProt O14793).
T1 construct: active myostatin (also called mature myostatin) is a homodimer consisting of two C-terminal growth factor domains; purchased R&D systems 788-G8/CF
T1 sequence (O14793 267-375): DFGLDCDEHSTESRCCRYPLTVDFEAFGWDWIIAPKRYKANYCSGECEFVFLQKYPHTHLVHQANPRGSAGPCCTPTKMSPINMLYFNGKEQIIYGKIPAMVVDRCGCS
The test is described as above. Conditions: read-out: IC50 (Luciferase) Myostatin HepG2. The method in brief:
as §1

The target in another test is T2, GDF-11 (Homo sapiens, UniProt O95390).
T2 construct: purchased R&D systems 1958-GD-G8/CF
T2 sequence (O95390 299-407): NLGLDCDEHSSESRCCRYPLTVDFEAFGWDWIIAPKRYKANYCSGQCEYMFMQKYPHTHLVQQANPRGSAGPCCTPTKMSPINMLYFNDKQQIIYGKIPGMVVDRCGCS
In words: Reporter gene assay for myostatin signaling in HepG2 cell line, Evaluation Procedure (1), GDF-11 inhibition. Conditions: read-out: IC50 (Luciferase) GDF-11 HepG2. The method in brief:
as §1
(In general: A reporter such as luciferase makes a cellular process visible.)

Where two headings read alike, the source gives them in different places. Starred links: 1 amine or outer side, 2 acyl side, 3 side chain; linkers in the order of their positions; H or OH if unused. Positions of bridges follow the written chain, without caps; N, C: chain ends. Non-standard residues stand in square brackets, D forms with d. Residues, ends and D or L forms follow the SMILES beside them. *: point of attachment. Phe(3-OCH2COOH) = N[C@@H](Cc1cccc(OCC(=O)O)c1)C(=O)O; Phe(4-COOH) = N[C@@H](Cc1ccc(C(=O)O)cc1)C(=O)O; Piperazinyl(4-CH2COOH) = O=C(O)CN1CCN(*)CC1; Piperidinyl(4-CH2COOH) = O=C(O)CC1CCN(*)CC1; Bip = N[C@@H](Cc1ccc(-c2ccccc2)cc1)C(=O)O; Gly(decyl) = CCCCCCCCCC[C@H](N)C(=O)O; Gly(N(CH2)3COOH) = O=C(O)CCCNCC(=O)O; NMeY = CN[C@@H](Cc1ccc(O)cc1)C(=O)O; X1 = CCCCCCC[C@H](N[*:1])C(=O)[*:2]; NMeF = CN[C@@H](Cc1ccccc1)C(=O)O; NMeE = CN[C@@H](CCC(=O)O)C(=O)O; Ahp(2) = CCCCC[C@H](N)C(=O)O; Carboxymethyl = O=C(O)C*; NMeA = CN[C@@H](C)C(=O)O; X9 = NC(=O)CC1CCN(*)CC1; Sar = CNCC(=O)O

Consider `CCCCCCC[C@@H]1NC(=O)[C@H](Cc2ccccc2)N(C)C(=O)[C@H](CCCNC(=N)N)NC(=O)[C@H](Cc2ccc(C(=O)O)cc2)NC(=O)[C@H](Cc2cccc(OCC(=O)O)c2)NC(=O)[C@H]2CCCN2C(=O)[C@H]([C@@H](C)CC)NC(=O)[C@H](Cc2ccccc2)N(C)C(=O)[C@H](Cc2ccc(O)cc2)NC(=O)[C@H](Cc2c[nH]c3ccccc23)NC(=O)[C@@H](CCC(=O)O)NC(=O)[C@H](C)NC(=O)CSC[C@H](C(=O)N2CCN(CC(=O)O)CC2)NC(=O)[C@H](Cc2ccccc2)N(C)C(=O)[C@H](C)N(C)C1=O` [Myostatin_99_v254] ({CH2CO}-A[dE]WY[NMeF]I[dP][Phe(3-OCH2COOH)][Phe(4-COOH)]R[NMeF][X1][NMeA][NMeF][dC]-{Piperazinyl(4-CH2COOH)}; thioether N-15), for which the Selectivity in the test with Myostatin [1] (Method A) is recorded as 921. For the same compound, the IC50 (usually the midpoint of a concentration-inhibition curve) on Myostatin [2] (Method A: Myostatin 10 ng/mL) was found to be 3.6 nM; on GDF-11 (Method A: GDF-11 10 ng/mL), 3310 nM.
In the case of `CCCCCCC[C@@H]1NC(=O)[C@H](Cc2ccccc2)N(C)C(=O)[C@H](CCCNC(=N)N)NC(=O)[C@H](Cc2ccc(C(=O)O)cc2)NC(=O)[C@H](Cc2cccc(OCC(=O)O)c2)NC(=O)CN(C)C(=O)[C@H]([C@@H](C)CC)NC(=O)[C@H](Cc2ccccc2)N(C)C(=O)[C@H](Cc2ccc(O)cc2)NC(=O)[C@H](Cc2c[nH]c3ccccc23)NC(=O)[C@H](C)NC(=O)[C@H](C)NC(=O)CSC[C@H](C(=O)N2CCC(CC(N)=O)CC2)NC(=O)[C@H](Cc2ccccc2)N(C)C(=O)[C@H](CCC(=O)O)N(C)C1=O` [Myostatin_99_v315] ({CH2CO}-AAWY[NMeF]I[Sar][Phe(3-OCH2COOH)][Phe(4-COOH)]R[NMeF][X1][NMeE][NMeF][dC]-X9; thioether N-15), the Selectivity in the test on Myostatin [1] (Method B) is listed as 541.6. Also, the IC50 stood at 0.1 nM on Myostatin [2] (Method B: Myostatin 1 ng/mL) and 56.8 nM at GDF-11 (Method B: GDF-11 1 ng/mL).
Turning to `CCCCCCC[C@@H]1NC(=O)[C@H](Cc2ccccc2)N(C)C(=O)[C@H](CCCNC(=N)N)NC(=O)[C@H](Cc2ccc(C(=O)O)cc2)NC(=O)[C@H](Cc2ccc(O)cc2)NC(=O)CN(C)C(=O)[C@H]([C@@H](C)CC)NC(=O)[C@H](Cc2ccccc2)N(C)C(=O)[C@H](Cc2ccc(O)cc2)NC(=O)[C@H](Cc2ccc(-c3ccccc3)cc2)NC(=O)[C@H](C)NC(=O)CN(CCCC(=O)O)C(=O)CSC[C@H](C(=O)O)NC(=O)[C@H](Cc2ccccc2)N(C)C(=O)[C@H](C)N(C)C1=O` [Myostatin_99_v179] ({CH2CO}-[Gly(N(CH2)3COOH)]A[Bip]Y[NMeF]I[Sar]Y[Phe(4-COOH)]R[NMeF][X1][NMeA][NMeF][dC]-OH; thioether N-15), the Selectivity in the test with Myostatin [1] (Method A) was found to be 108. For the same compound, the results for the IC50 on Myostatin [2] (Method A: Myostatin 10 ng/mL) and on GDF-11 (Method A: GDF-11 10 ng/mL) were 1.5 nM and 163 nM, respectively.
Take `CCCCCCC[C@@H]1NC(=O)[C@H](Cc2ccccc2)N(C)C(=O)[C@H](CCCNC(=N)N)NC(=O)[C@H](Cc2ccc(C(=O)O)cc2)NC(=O)[C@H](Cc2cccc(OCC(=O)O)c2)NC(=O)CN(C)C(=O)[C@H]([C@@H](C)CC)NC(=O)[C@H](Cc2ccccc2)N(C)C(=O)[C@H](Cc2ccc(O)cc2)NC(=O)[C@H](Cc2c[nH]c3ccccc23)NC(=O)[C@H](C)NC(=O)[C@H](CC(N)=O)NC(=O)CSC[C@H](C(=O)O)NC(=O)[C@H](Cc2ccccc2)N(C)C(=O)[C@H](C)N(C)C1=O` [Myostatin_99_v217] ({CH2CO}-NAWY[NMeF]I[Sar][Phe(3-OCH2COOH)][Phe(4-COOH)]R[NMeF][X1][NMeA][NMeF][dC]-OH; thioether N-15): in the test with Myostatin [1] (Method A), the Selectivity is recorded as 232. Further, the 50% inhibitory concentration (IC50) on Myostatin [2] (Method A: Myostatin 10 ng/mL) is 3 nM; at GDF-11 (Method A: GDF-11 10 ng/mL), 696 nM.
`CCCCCCCCCC[C@@H]1NC(=O)[C@H](Cc2ccccc2)N(C)C(=O)[C@H](CCCNC(=N)N)NC(=O)[C@H](Cc2ccc(C(=O)O)cc2)NC(=O)[C@H](Cc2cccc(OCC(=O)O)c2)NC(=O)[C@H]2CCCN2C(=O)[C@H]([C@@H](C)CC)NC(=O)[C@H](Cc2ccccc2)N(C)C(=O)[C@H](Cc2ccc(O)cc2)NC(=O)[C@H](Cc2c[nH]c3ccccc23)NC(=O)[C@H](C)NC(=O)[C@H](C)NC(=O)CSC[C@H](C(=O)N2CCC(CC(=O)O)CC2)NC(=O)[C@H](Cc2ccccc2)N(C)C(=O)[C@H](CCC(=O)O)N(C)C1=O` [Myostatin_99_v335] ({CH2CO}-AAWY[NMeF]I[dP][Phe(3-OCH2COOH)][Phe(4-COOH)]R[NMeF][Gly(decyl)][NMeE][NMeF][dC]-{Piperidinyl(4-CH2COOH)}; thioether N-15) had a Selectivity in the test on Myostatin [1] (Method B) of 145.0. In addition, the IC50 came to 0.32 nM on Myostatin [2] (Method B: Myostatin 1 ng/mL) and 46.6 nM on GDF-11 (Method B: GDF-11 1 ng/mL).
Turning to `CC[C@H](C)[C@@H]1NC(=O)[C@H](Cc2ccccc2)N(C)C(=O)[C@H](Cc2ccc(O)cc2)NC(=O)[C@H](Cc2c[nH]c3ccccc23)NC(=O)[C@H](C)NC(=O)CN(CCCC(=O)O)C(=O)CSC[C@H](C(=O)O)NC(=O)[C@H](Cc2ccccc2)N(C)C(=O)[C@H](C)N(C)C(=O)[C@H](CC(C)C)NC(=O)[C@H](Cc2ccccc2)N(C)C(=O)[C@H](CCCNC(=N)N)NC(=O)[C@H](Cc2ccc(C(=O)O)cc2)NC(=O)[C@H](Cc2ccc(O)cc2)NC(=O)[C@H](C)N(C)C1=O` [Myostatin_99_v178] ({CH2CO}-[Gly(N(CH2)3COOH)]AWY[NMeF]I[NMeA]Y[Phe(4-COOH)]R[NMeF]L[NMeA][NMeF][dC]-OH; thioether N-15), the Selectivity in the test on Myostatin [1] (Method A) turned out to be 21. Besides, the IC50 came to 12.1 nM on Myostatin [2] (Method A: Myostatin 10 ng/mL) and 250 nM on GDF-11 (Method A: GDF-11 10 ng/mL).
The like results for `CCCCC[C@@H]1NC(=O)[C@H](Cc2ccccc2)N(C)C(=O)[C@H](CCCNC(=N)N)NC(=O)[C@H](Cc2ccc(C(=O)O)cc2)NC(=O)[C@H](Cc2cccc(OCC(=O)O)c2)NC(=O)CN(C)C(=O)[C@H]([C@@H](C)CC)NC(=O)[C@H](Cc2ccc(O)cc2)N(C)C(=O)[C@H](Cc2ccc(O)cc2)NC(=O)[C@H](Cc2ccc(-c3ccccc3)cc2)NC(=O)[C@H](C)NC(=O)CN(CCCC(=O)O)C(=O)CSC[C@H](C(=O)O)NC(=O)[C@H](Cc2ccccc2)N(C)C(=O)[C@H](C)N(C)C1=O` [Myostatin_99_v116] ({CH2CO}-[Gly(N(CH2)3COOH)]A[Bip]Y[NMeY]I[Sar][Phe(3-OCH2COOH)][Phe(4-COOH)]R[NMeF][Ahp(2)][NMeA][NMeF][dC]-OH; thioether N-15) were, in that order, 364, 5.4 nM and 1960 nM.
The like results for `CCCCCCC[C@@H]1NC(=O)[C@H](Cc2ccccc2)N(C)C(=O)[C@H](CCCNC(=N)N)NC(=O)[C@H](Cc2ccc(C(=O)O)cc2)NC(=O)[C@H](Cc2cccc(OCC(=O)O)c2)NC(=O)CN(C)C(=O)[C@H]([C@@H](C)CC)NC(=O)[C@H](Cc2ccccc2)N(C)C(=O)[C@H](Cc2ccc(O)cc2)NC(=O)[C@H](Cc2c[nH]c3ccccc23)NC(=O)[C@H](C)NC(=O)[C@H](C)NC(=O)CSC[C@@H](C(=O)O)NC(=O)[C@H](Cc2ccccc2)N(C)C(=O)[C@H](C)N(C)C1=O` [Myostatin_99_v215] ({CH2CO}-AAWY[NMeF]I[Sar][Phe(3-OCH2COOH)][Phe(4-COOH)]R[NMeF][X1][NMeA][NMeF]C-OH; thioether N-15) were, in that order, 106, 1.9 nM and 202 nM.
Regarding `CC[C@H](C)[C@@H]1NC(=O)[C@H](Cc2ccccc2)N(C)C(=O)[C@H](Cc2ccc(O)cc2)NC(=O)[C@H](Cc2c[nH]c3ccccc23)NC(=O)[C@H](C)NC(=O)CN(CCCC(=O)O)C(=O)CSC[C@H](C(=O)O)NC(=O)[C@H](Cc2ccccc2)N(C)C(=O)[C@H](C)N(C)C(=O)[C@H](CC(C)C)NC(=O)[C@H](Cc2ccccc2)N(C)C(=O)[C@H](CCCNC(=N)N)NC(=O)[C@H](Cc2ccc(OCC(=O)O)cc2)NC(=O)[C@H](Cc2cccc(OCC(=O)O)c2)NC(=O)[C@H](C)N(C)C1=O` [Myostatin_99_v124] ({CH2CO}-[Gly(N(CH2)3COOH)]AWY[NMeF]I[NMeA][Phe(3-OCH2COOH)]Y(Carboxymethyl)R[NMeF]L[NMeA][NMeF][dC]-OH; thioether N-15), in the test on Myostatin [1] (Method A), the Selectivity worked out at 133. Also, the IC50 on Myostatin [2] (Method A: Myostatin 10 ng/mL) is 17.1 nM; at GDF-11 (Method A: GDF-11 10 ng/mL) it was 2270 nM.
The like results for `CCCCCCC[C@@H]1NC(=O)[C@H](Cc2ccccc2)N(C)C(=O)[C@H](CCCNC(=N)N)NC(=O)[C@H](Cc2ccc(C(=O)O)cc2)NC(=O)[C@H](Cc2cccc(OCC(=O)O)c2)NC(=O)[C@H](C)N(C)C(=O)[C@H]([C@@H](C)CC)NC(=O)[C@H](Cc2ccccc2)N(C)C(=O)[C@H](Cc2ccc(O)cc2)NC(=O)[C@H](Cc2c[nH]c3ccccc23)NC(=O)[C@H](C)NC(=O)[C@H](C)NC(=O)CSC[C@H](C(=O)O)NC(=O)[C@H](Cc2ccccc2)N(C)C(=O)[C@H](C)N(C)C1=O` [Myostatin_99_v194] ({CH2CO}-AAWY[NMeF]I[NMeA][Phe(3-OCH2COOH)][Phe(4-COOH)]R[NMeF][X1][NMeA][NMeF][dC]-OH; thioether N-15) were, in that order, 116, 1.2 nM and 139 nM.

(Values after patent publication EP4786487A1, “PEPTIDE” (Peptidream Inc, priority 2023, dated 2025).)
